Here are results for 40 compounds from patent publication US20230000869A1, “NOVEL ALK2 INHIBITORS AND METHODS FOR INHIBITING BMP SIGNALING” (The Brigham and Women's Hospital, Inc., priority 2017, published 2023).

Some results are limits rather than exact numbers.

For assay [1], the target named is T1, ALK2 (Mus musculus, UniProt P37172).
T1 construct: endogenous in cells; host or cells: C2C12-BRE (BRE-Luc reporter line, G418 selection)
T1 sequence (P37172 21-509): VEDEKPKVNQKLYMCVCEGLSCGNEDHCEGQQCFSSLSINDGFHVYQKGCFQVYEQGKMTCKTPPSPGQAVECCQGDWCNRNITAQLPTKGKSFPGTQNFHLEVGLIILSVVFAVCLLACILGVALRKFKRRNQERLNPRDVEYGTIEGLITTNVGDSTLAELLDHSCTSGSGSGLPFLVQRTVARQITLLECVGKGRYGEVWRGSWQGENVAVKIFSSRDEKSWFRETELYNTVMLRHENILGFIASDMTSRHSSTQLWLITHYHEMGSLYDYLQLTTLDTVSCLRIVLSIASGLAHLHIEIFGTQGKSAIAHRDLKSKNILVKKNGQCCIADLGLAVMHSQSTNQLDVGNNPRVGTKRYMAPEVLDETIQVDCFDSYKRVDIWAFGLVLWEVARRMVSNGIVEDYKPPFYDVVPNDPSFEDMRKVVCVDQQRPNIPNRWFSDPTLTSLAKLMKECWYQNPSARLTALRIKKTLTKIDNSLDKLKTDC
The assay can be described thus: Luciferase reporter gene assay for ALK2 activity (C2C12 BRE-Luc SMAD1/5/8 reporter, BMP6 agonist). It is filed as cell-based. To be noted: BMP6 50 ng/mL. On the procedure: (§1) All cell lines were cultured in DMEM, supplemented with […] and 1% Pen/Strep. All media reagents were obtained from Gibco. BMP6, BMP9, and TGFβ were obtained from R&D Systems. C2C12-BRE and HEK293T-SBE were kept in selection with 400 ug/mL G418 from Invivogen.
(§2) In this reporter gene cell based ALK2 and TGFβ assay, the C2C12 cell line was employed for the measurement of ALK2 activity, using a BRE-Luc SMAD1/5/8 reporter and BMP6 as the agonist. The HEK293T cell line was employed to measure TGFβ activity, using a SBE-Luc SMAD2/3 reporter and TGFβ as the agonist. Luciferase reporter assays were read using Promega Steady-Glo Luciferase Assay System.
(§3) Cells were plated in 96 well white clear bottom assay plates at 10 k cells/well for C2C12-BRE, 15 k cells/well for HEK293-SBE in DMEM containing 2% FBS 1% P/S. Cells were given a minimum of 4 hours in incubator at 37° C./5% CO2 to adhere prior to further treatment. Compounds were diluted in DMSO to a 10-point dilution curve and added to the plate to reach the following final concentrations: 10000, 3000, 1000, 300, 100, and 30 nM in the HEK293-SBE assay and 1000, 300, 100, 30, 10, 3, 1, 0.3 nM in the C2C12-BRE assay. Negative and positive control wells received 2 μL DMSO as vehicle treatment. Plates were returned to incubator for 45 minutes and then BMP6 and TGFB were added to a final concentration of 50 ng/mL and 5 ng/mL, respectively. Plates were returned to the incubator and left overnight. After a minimum of 18 hours post BMP6/TGFβ addition, the plates were read using Promega Steady-Glo Luciferase Assay System. A 1:1 mixture of prepared steady-glo and phenol free DMEM was prepared, and 50 μL/well was added to the assay plates whose media had been flicked off. Plates were given 10 minutes post steady-glo addition before luminescence was read on a Spectramax M5e microplate reader. Negative control wells were averaged and subtracted from all other wells on the plate. Inhibition was calculated as the percent of signal loss compared to the averaged positive control wells.

Assay [2] has as its system TGFβ. The assay can be described thus: Luciferase reporter gene assay for TGFβ activity (HEK293T SBE-Luc SMAD2/3 reporter, TGFβ agonist). In kind it is cell-based. The settings on record: Homo sapiens, HEK-293T, TGFβ 5 ng/mL. Here is the method: as §1, §2, §3

As usually defined, the IC50 is the midpoint of a concentration-inhibition curve. Read a high IC50 as lower potency. In the case of `CN1CCN(C2CCN(c3cnc4c(-c5ccnc6ccc(OC(F)(F)F)cc56)cnn4c3)CC2)CC1` [Compound 252], the IC50 in assay [1] was 85 nM; in assay [2] it was 12 nM.
For `COc1cc2c(-c3cnn4cc(N5CCC(N6C[C@H]7C[C@@H]6CN7)CC5)cnc34)ccnc2cc1F` [Compound 54], the figures for the half-maximal inhibitory concentration (IC50) in assay [1] and in assay [2] were 71 nM and 539 nM, respectively.
Regarding `CN1CCN(C2CCN(c3cnc4c(-c5ccnc6cc(OC(F)(F)F)ccc56)cnn4c3)CC2)CC1` [Compound 262], the values for the 50% inhibitory concentration (IC50) in assay [1] and in assay [2] were above 1000 nM and above 3000 nM, respectively.
As for `COc1cc2c(-c3cnn4cc(N5CCC(N)CC5)cnc34)ccnc2cc1F` [Compound 186], the half-inhibitory concentration (IC50) is 57 nM in assay [1] and 370 nM in assay [2].
As for `COc1cc2c(-c3cnn4cc(N5CCC(N6CCN(C)CC6)CC5)cnc34)ccnc2cc1Cl` [Compound 28], the results for the IC50 in assay [1] and in assay [2] were 72 nM and 248 nM, respectively.
Take `COc1cc2c(-c3cnn4cc(N5CC(N6CCN(C)CC6)C5)cnc34)ccnc2cc1F` [Compound 49]: the IC50 in assay [1] stood at 11 nM; in assay [2], 631 nM.
As to `Cc1cc(-c2cnn3cc(N4CC(N5CCN(C)CC5)C4)cnc23)c2cc(F)cc(F)c2n1` [Compound 311], the figures for the half-maximal inhibitory concentration (IC50) in assay [1] and in assay [2] were 33 nM and 60 nM, respectively.
For `COc1cc2c(-c3cnn4cc(N5CCC(N6CC7CCC(C6)N7)CC5)cnc34)ccnc2cc1F` [Compound 52] the same measures were 29 nM and 358 nM.
As to `COc1cc2c(-c3cnc4cc(N5CCC(N6CCN(C)CC6)CC5)cnn34)ccnc2cc1F` [Compound 355], the half-inhibitory concentration (IC50) in assay [1] was found to be 146 nM; in assay [2], 791 nM.
For the compound `COc1cc2c(-c3cnn4cc(N5CCC(N6CCC(N(C)C)C6)CC5)cnc34)ccnc2cc1F` (centres unmarked) [Compound 190], the half-inhibitory concentration (IC50) in assay [1] is 31 nM; in assay [2], 128 nM.
On to `[2H]C([2H])([2H])Oc1cc2c(-c3cnn4cc(N5CCC(N6CCN(C)CC6)CC5)cnc34)ccnc2cc1F` [Compound 346], for which the half-inhibitory concentration (IC50) was 18 nM in assay [1] and 686 nM in assay [2].
Regarding `Cc1cc(-c2cnn3cc(N4CC(OCCN(C)C)C4)cnc23)c2ccccc2n1` [Compound 350], the results for the IC50 in assay [1] and in assay [2] were 477 nM and 975 nM, respectively.
For the compound `COc1cc2c(-c3cnn4cc(N5CC(c6ccncc6)C5)cnc34)ccnc2cc1F` [Compound 209], the half-maximal inhibitory concentration (IC50) in assay [1] amounted to 15 nM; in assay [2], 62 nM.
With `COc1cc2c(-c3nnc4cc(N5CCC(N6CCN(C)CC6)CC5)ccn34)ccnc2cc1F` [Compound 354], the figures for the half-maximal inhibitory concentration (IC50) in assay [1] and in assay [2] were above 1000 nM and above 3000 nM, respectively.
The like results for `CN1CCN(C2CCN(c3cnc4c(-c5ccnc6cc(C(F)(F)F)ccc56)cnn4c3)CC2)CC1` [Compound 257] were, in that order, above 1000 nM and above 1000 nM.
On to `COc1cc2c(-c3cnn4cc(N5CCC(N6CCN(C)CC6)CC5)cnc34)cc(=O)[nH]c2cc1F` [Compound 220], for which the IC50 in assay [1] and in assay [2] was above 1000 nM throughout.
Consider `COc1cc(-c2cnn3cc(N4CC(N5CCN(C)CC5)C4)cnc23)cc(OC)c1OC` [Compound 309], for which the half-maximal inhibitory concentration (IC50) in assay [1] is 28 nM; in assay [2], 335 nM.
With `CN1CCN(C2CCN(c3cnc4c(-c5cnn6ccccc56)cnn4c3)CC2)CC1` [Compound 26], the IC50 in assay [1] was 334 nM; in assay [2] it was 118 nM.
For `COc1cc2c(-c3cnc4cc(N5CCC(N6CCN(C)CC6)CC5)ccn34)ccnc2cc1F` [Compound 351], the IC50 in assay [1] was 372 nM; in assay [2] it was above 3000 nM.
Regarding `COc1cc(-c2cnn3cc(N4CCC(N5CCN(C)CC5)CC4)cnc23)ccn1` [Compound 272], the IC50 was 153 nM in assay [1] and above 1000 nM in assay [2].
Turning to `Cc1cc(-c2cnn3cc(N4CCC(N(C)C)CC4)cnc23)c2ccccc2n1` [Compound 189], the concentration for half-maximal inhibition (IC50) in assay [1] amounted to 137 nM; in assay [2] it was 92 nM.
With `Cc1ccc2nccc(-c3cnn4cc(N5CCC(N6CCOCC6)CC5)cnc34)c2c1` [Compound 341], the IC50 in assay [1] was 15 nM; in assay [2], 771 nM.
For the compound `CN1CCN(C2CCN(c3cnc4c(-c5ccnc6ccc(C(F)(F)F)cc56)cnn4c3)CC2)CC1` [Compound 235], the IC50 in assay [1] is 25 nM; in assay [2], above 1000 nM.
`Cc1cc(-c2cnn3cc(N4CC(N5CCN(C)CC5)C4)cnc23)c2cccc(F)c2n1` [Compound 316]: the values for the 50% inhibitory concentration (IC50) in assay [1] and in assay [2] were 22 nM and below 20 nM, respectively.
As to `COc1cc2c(-c3cnn4cc(N5CC(N6CCOCC6)C5)cnc34)ccnc2cc1F` [Compound 193], the figures for the IC50 in assay [1] and in assay [2] were 118 nM and 449 nM, respectively.
Turning to `CN1CCN(C2CCN(c3cnc4c(-c5cc(C#N)nc6ccccc56)cnn4c3)CC2)CC1` [Compound 237], the IC50 was found to be 6 nM in assay [1] and 240 nM in assay [2].
`COc1cc2c(-c3cnn4cc(N5CCN(C6CN(C)C6)CC5)cnc34)ccnc2cc1F` [Compound 199]: the values for the IC50 in assay [1] and in assay [2] were 23 nM and 498 nM, respectively.
The like results for `COc1cc(F)c2nccc(-c3cnn4cc(N5CCC(N6CCN(C)CC6)CC5)cnc34)c2c1` [Compound 273] were, in that order, 14 nM and 267 nM.
On to `CN1CCN(C2CCN(c3cnc4c(-c5ccnc6sccc56)cnn4c3)CC2)CC1` [Compound 250], for which the IC50 in assay [1] came out at 17 nM; in assay [2] it was 202 nM.
With `COc1cc2c(-c3cnn4cc(N5CCN(c6ccncc6)CC5)cnc34)ccnc2cc1F` [Compound 202], the IC50 in assay [1] was 507 nM; in assay [2] it was 359 nM.
For `CN1CCN(C2CCN(c3cnc4c(-c5cccc6c(C(N)=O)cccc56)cnn4c3)CC2)CC1` [Compound 10] the same measures were 41 nM and 76 nM.
With `COc1ccc2nccc(-c3cnn4cc(N5CCC(N6CCN(C)CC6)CC5)cnc34)c2c1` [Compound 20], the IC50 in assay [1] stood at 8 nM; in assay [2], 218 nM.
The like results for `CN1CCN(C2CCN(c3cnc4c(-c5ccnc6ncccc56)cnn4c3)CC2)CC1` [Compound 261] were, in that order, 19 nM and 916 nM.
Take `Cc1cc(-c2cnn3cc(N4CC(N5CCN(C)CC5)C4)cnc23)c2ccc(F)c(F)c2n1` [Compound 315]: the IC50 in assay [1] is 23 nM; in assay [2] it was 30 nM.
The like results for `Cc1cc(-c2cnn3cc(N4CCC(N5CCN(C)CC5)CC4)cnc23)c2ccc(C(F)(F)F)cc2n1` [Compound 245] were, in that order, above 1000 nM and 468 nM.
With `Cc1cc(-c2cnn3cc(N4CC(N5CCOCC5)C4)cnc23)c2ccccc2n1` [Compound 194], the figures for the IC50 in assay [1] and in assay [2] were 221 nM and 138 nM, respectively.
Consider `CN1CCN(C2CCN(c3cnc4c(-c5ccncc5)cnn4c3)CC2)CC1` [Compound 277], for which the IC50 in assay [1] was above 1000 nM; in assay [2] it was above 3000 nM.
For `CC(=O)N1CCC(N2CCN(c3cnc4c(-c5ccnc6ccccc56)cnn4c3)CC2)CC1` [Compound 81] the same measures were above 3000 nM and above 3000 nM.
Take `Cc1cc(-c2cnn3cc(N4CCN(CCN5CCOCC5)CC4)cnc23)c2ccccc2n1` [Compound 19]: the IC50 in assay [1] was determined as 113 nM; in assay [2], 64 nM.
Take `COc1cc2c(-c3cnn4cc(N5CCC6(CC5)CN(C)C6)cnc34)ccnc2cc1F` [Compound 290]: the IC50 in assay [1] worked out at 12 nM; in assay [2], 63 nM.
